This is an account of results in patent US20160089371A1, “Combination of Kinase Inhibitors and Uses Thereof” (INTELLIKINE, LLC, priority 2013, published 2016).

Read-outs that look alike come from different tables or passages of the source.

In data set [1] the test system is PC3. Put plainly: PC3 proliferation. The conditions noted are these: Homo sapiens, PC-3; PC3 cell line (compounds before 438). The class given is cell-based.
In data set [2] the test system is T47D. Put plainly: T47D proliferation. In kind it is cell-based. To be noted: Homo sapiens; T47D cell line.
For data set [3], the target named is PI3K β (Homo sapiens, UniProt P42338). Put plainly: PI 3-Kinase (human) HTRF assay, p110β/p85α. On the technique in general: Time-resolved FRET reads energy transfer from a long-lived donor to a nearby acceptor.
Method: (§1) An exemplary system is PI 3-Kinase (human) HTRF™ Assay from Upstate. […] Briefly, the assay is a time resolved FRET assay that indirectly measures PIP3 product formed by the activity of a PI3-K. The kinase reaction is performed in a microtiter plate (e.g., a 384 well microtiter plate). The total reaction volume is approximately 20 ul per well. In the first step, each well receives 2 ul of test compound in 20% dimethylsulphoxide resulting in a 2% DMSO final concentration. […] The plate is sealed and incubated for 15 minutes at room temperature. […] The plate is sealed and incubated for 1 hour at room temperature. The reaction is stopped by adding 5 ul of Stop Solution per well and then 5 ul of Detection Mix is added per well. The plate is sealed, incubated for 1 hour at room temperature, and then read on an appropriate plate reader. Data is analyzed and IC50s are generated using GraphPad Prism 5.
Data set [4] has as its target PI3K α (Homo sapiens, UniProt P42336). The data set can be described thus: PI 3-Kinase (human) HTRF assay, p110α/p85α.
Method: as §1
Data set [5] concerns the target PI3K γ (Homo sapiens, UniProt P48736). The data set can be described thus: PI 3-Kinase (human) HTRF assay, p110γ.
Method: (§2) Briefly, the assay is a time resolved FRET assay that indirectly measures PIP3 product formed by the activity of a PI3-K. The kinase reaction is performed in a microtiter plate (e.g., a 384 well microtiter plate). The total reaction volume is approximately 20 ul per well. In the first step, each well receives 2 ul of test compound in 20% dimethylsulphoxide resulting in a 2% DMSO final concentration. […] The plate is sealed and incubated for 15 minutes at room temperature. […] The plate is sealed and incubated for 1 hour at room temperature. The reaction is stopped by adding 5 ul of Stop Solution per well and then 5 ul of Detection Mix is added per well. The plate is sealed, incubated for 1 hour at room temperature, and then read on an appropriate plate reader. Data is analyzed and IC50s are generated using GraphPad Prism 5.
In data set [6] the target is PI3K δ (Homo sapiens, UniProt O00329). The data set can be described thus: PI 3-Kinase (human) HTRF assay, p110δ/p85α.
Method: as §2
Data set [7] deals with T1, mTOR (Homo sapiens, UniProt P42345).
T1 construct: purchased Invitrogen
Put plainly: Inhibition assay of mTOR (radiometric or LanthaScreen TR-FRET). In kind it is biochemical. To be noted: read-out: mTORC IC50.
Method: The compounds described herein can be tested against recombinant mTOR (Invitrogen) in an assay containing 50 mM HEPES, pH 7.5, 1 mM EGTA, 10 mM MgCl2, 2.5 mM, 0.01% Tween, 10 μM ATP (2.5 μCi of μ-32P-ATP), and 3 μg/mL BSA. Rat recombinant PHAS-1/4EBP1 (Calbiochem; 2 mg/mL) is used as a substrate. Reactions are terminated by spotting onto nitrocellulose, which is washed with 1M NaCl/1% phosphoric acid (approximately 6 times, 5-10 minutes each). Sheets are dried and the transferred radioactivity quantitated by phosphorimaging.
For instance, one can use Invitrogen's LanthaScreen™ Kinase assay to test the inhibitors of mTOR disclosed herein. This assay is a time resolved FRET platform that measures the phosphorylation of GFP labeled 4EBP1 by mTOR kinase. The kinase reaction is performed in a white 384 well microtiter plate. The total reaction volume is 20 ul per well and the reaction buffer composition is 50 mM HEPES pH7.5, 0.01% Polysorbate 20, 1 mM EGTA, 10 mM MnCl2, and 2 mM DTT. In the first step, each well receives 2 ul of test compound in 20% dimethylsulphoxide resulting in a 2% DMSO final concentration. […] The plate is sealed and incubated for 1 hour at room temperature. […] The plate is sealed, incubated for 1 hour at room temperature, and then read on a plate reader set up for LanthaScreen™ TR-FRET. Data is analyzed and IC50s are generated using GraphPad Prism 5.

Data set [8] has as its system MDA-MB-361. The data set can be described thus: MDA-MB-361 proliferation. In kind it is cell-based. To be noted: Homo sapiens.
For data set [9], the system named is marginal zone B cells. The data set can be described thus: Marginal zone B cells in mouse spleen (FACS). The conditions noted are these: 70 mg/kg Pan-PI3K inhibitor; 60 mg/kg Compound A; spleens 2 hrs after last dose.
Method: The effect of the compounds on the localization/viability of marginal zone B cells in the spleen is also evaluated at the conclusion of treatment.
Spleens were harvested 2 hrs after the last dose, processed and stained with appropriate antibodies (marginal zone B cell: B220+; CD23−; CD21hi) and analyzed for staining on GUAVA EasyCyte FACS machine using Guava Cytosoft 5.2 software.
The test system of data set [10] is anti-TNP antibody production (B cell function). The data set can be described thus: TNP-Ficoll T-cell independent B-cell activation assay. The class given is in vivo, mice. The conditions noted are these: 70 mg/kg GDC0941; 30, 60 or 120 mg/kg Compound A; 7 days. The protocol: To test the effects of the compounds of the present invention in suppressing T cell independent antibody production, the TNP-Ficoll B-cell activation assay is used as described herein. Compounds of the present invention are dissolved in an appropriate vehicle (e.g. 5% 1-methyl-2-pyrrolidinone, 85% polyethylene glycol 400, 10% Solutor). Compounds are administered orally approximately lhr before TNP-Ficoll treatment to 4-10 week old mice. To study the effects of the compounds on B-cell activation, one set of mice are grouped according to the following table:
Four animals in group 1, and eight animals in groups 2 to 7 are euthanized in CO2 2 hours after the last compound administration on day 7. […]
Serum samples are analyzed for anti-TNP antibody titers by ELISA as described herein. […] HRP substrate (200 μl ABTS solution+30% H2O2+10 ml citrate buffer) is added to each well at 100 μl/well, incubated 2-20 minutes in the dark and the amount of anti-TNP IgG3 is determined spectrophotometrically at 405 nm. Similarly, anti-TNP IgM and total anti-TNP Ab are determined using anti-mouse IgM-HRP and anti-mouse Ig-HRP respectively.
Antibody production was measured using ELISA and plotted as a percentage of control group that were treated with vehicle.

Data set [11] relates to MDA-MB-361 (PI3Kα/HER2 carcinoma) tumors. The data set can be described thus: In vivo efficacy in xenogenic mouse model of breast cancer. The arrangement: species or system nude mice. The conditions noted are these: 70 mg/kg Pan-PI3K inhibitor; 60 mg/kg compound A. The protocol:
Blood glucose was monitored periodically following administration of treatment.
Treatment of tumors (MDA-MB-361) with compounds was discontinued on Day 30. Tumors were measured every 2-5 days.

The test system of data set [12] is B cell function. The data set can be described thus: B cell function in vivo, antibody production after TNP-Ficoll immunization. To be noted: mice immunized with TNP-Ficoll; 70 mg/kg GDC0941; 30, 60 or 120 mg/kg Compound A; 7 days; FIG. 8. How it is done: Mice were immunized with TNP-Ficoll and treated with 1) vehicle; 2) 70 mg/kg GDC0941; 3) 30 mg/kg Compound A; 4) 60 mg/kg Compound A; or 5) 120 mg/kg Compound A for 7 days. Antibody production was measured as a percentage of control group that were treated with vehicle.

Chain of PI3K β (P42338 whole entry): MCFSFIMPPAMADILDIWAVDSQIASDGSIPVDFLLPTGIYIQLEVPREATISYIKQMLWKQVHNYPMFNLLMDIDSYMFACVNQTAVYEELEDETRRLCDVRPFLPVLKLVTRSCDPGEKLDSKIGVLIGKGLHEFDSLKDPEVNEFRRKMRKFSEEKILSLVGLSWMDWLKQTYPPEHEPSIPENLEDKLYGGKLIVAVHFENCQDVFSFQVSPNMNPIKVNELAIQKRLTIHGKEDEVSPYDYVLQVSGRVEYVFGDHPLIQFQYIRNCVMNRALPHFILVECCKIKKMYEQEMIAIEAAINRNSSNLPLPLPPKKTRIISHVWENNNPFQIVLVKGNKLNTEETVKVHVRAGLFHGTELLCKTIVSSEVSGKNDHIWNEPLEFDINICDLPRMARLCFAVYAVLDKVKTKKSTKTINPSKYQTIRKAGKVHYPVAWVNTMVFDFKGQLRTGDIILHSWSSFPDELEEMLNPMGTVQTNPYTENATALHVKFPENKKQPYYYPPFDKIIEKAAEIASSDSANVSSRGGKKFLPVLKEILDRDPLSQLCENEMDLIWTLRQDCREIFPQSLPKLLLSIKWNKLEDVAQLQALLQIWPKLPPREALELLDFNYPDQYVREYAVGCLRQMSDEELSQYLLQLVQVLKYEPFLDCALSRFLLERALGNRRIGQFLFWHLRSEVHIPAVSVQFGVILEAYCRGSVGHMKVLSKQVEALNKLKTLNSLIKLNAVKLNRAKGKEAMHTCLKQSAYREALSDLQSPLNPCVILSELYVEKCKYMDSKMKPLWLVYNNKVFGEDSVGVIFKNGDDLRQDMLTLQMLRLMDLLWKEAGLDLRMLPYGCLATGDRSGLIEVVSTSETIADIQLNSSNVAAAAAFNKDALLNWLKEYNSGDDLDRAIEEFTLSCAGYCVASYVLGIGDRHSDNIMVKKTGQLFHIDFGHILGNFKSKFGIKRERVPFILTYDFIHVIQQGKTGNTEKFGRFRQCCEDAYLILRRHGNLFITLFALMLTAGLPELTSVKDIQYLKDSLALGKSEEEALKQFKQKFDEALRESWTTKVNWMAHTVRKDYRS
Chain of PI3K β (P27986 whole entry partner): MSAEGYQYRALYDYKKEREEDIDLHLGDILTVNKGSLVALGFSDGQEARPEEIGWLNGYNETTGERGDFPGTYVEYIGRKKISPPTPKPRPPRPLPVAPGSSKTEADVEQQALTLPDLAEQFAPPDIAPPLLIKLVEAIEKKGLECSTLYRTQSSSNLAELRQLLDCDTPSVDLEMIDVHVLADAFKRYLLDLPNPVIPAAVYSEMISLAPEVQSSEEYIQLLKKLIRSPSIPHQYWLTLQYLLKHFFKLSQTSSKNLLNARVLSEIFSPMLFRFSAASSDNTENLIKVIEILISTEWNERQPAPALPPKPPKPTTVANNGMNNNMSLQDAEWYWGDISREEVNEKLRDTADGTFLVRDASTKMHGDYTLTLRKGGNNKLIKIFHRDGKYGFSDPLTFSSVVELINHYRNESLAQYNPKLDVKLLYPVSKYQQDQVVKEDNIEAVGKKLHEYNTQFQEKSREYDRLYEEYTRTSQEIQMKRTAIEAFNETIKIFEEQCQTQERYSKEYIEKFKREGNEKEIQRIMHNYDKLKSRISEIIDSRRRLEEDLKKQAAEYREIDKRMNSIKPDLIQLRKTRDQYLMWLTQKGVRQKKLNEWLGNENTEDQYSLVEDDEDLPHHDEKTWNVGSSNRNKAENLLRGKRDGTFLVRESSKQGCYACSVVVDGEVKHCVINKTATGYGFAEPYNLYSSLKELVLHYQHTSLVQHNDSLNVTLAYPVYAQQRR
Chain of PI3K δ (O00329 whole entry): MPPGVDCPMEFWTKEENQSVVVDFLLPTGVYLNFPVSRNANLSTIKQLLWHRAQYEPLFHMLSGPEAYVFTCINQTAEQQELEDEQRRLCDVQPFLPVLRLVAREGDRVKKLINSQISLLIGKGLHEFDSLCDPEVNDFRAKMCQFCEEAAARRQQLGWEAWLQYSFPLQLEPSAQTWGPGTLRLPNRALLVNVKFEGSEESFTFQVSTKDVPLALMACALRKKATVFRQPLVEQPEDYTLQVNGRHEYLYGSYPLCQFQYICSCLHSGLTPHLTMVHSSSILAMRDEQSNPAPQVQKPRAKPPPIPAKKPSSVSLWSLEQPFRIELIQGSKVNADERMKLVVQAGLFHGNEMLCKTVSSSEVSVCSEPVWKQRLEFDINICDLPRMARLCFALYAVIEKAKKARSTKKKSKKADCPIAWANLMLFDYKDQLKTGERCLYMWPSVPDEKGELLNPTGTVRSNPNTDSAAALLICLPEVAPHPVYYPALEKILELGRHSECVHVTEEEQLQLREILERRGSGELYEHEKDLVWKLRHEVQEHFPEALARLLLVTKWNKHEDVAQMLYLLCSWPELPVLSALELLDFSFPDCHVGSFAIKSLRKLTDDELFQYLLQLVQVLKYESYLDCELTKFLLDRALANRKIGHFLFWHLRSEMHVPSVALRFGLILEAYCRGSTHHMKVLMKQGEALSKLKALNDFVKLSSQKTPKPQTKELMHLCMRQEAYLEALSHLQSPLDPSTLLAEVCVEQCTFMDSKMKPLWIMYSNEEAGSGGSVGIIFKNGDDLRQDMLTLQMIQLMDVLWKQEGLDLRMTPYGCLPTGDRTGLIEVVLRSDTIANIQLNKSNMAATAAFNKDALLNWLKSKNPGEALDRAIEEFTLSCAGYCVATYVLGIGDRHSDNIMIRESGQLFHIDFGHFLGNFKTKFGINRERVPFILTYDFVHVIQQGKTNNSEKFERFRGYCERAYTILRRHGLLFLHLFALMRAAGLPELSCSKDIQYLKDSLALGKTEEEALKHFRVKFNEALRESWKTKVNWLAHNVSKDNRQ
Chain of PI3K δ (P27986 whole entry partner): as the sequence (P27986 whole entry partner) above
Chain of PI3K γ (P48736 whole entry): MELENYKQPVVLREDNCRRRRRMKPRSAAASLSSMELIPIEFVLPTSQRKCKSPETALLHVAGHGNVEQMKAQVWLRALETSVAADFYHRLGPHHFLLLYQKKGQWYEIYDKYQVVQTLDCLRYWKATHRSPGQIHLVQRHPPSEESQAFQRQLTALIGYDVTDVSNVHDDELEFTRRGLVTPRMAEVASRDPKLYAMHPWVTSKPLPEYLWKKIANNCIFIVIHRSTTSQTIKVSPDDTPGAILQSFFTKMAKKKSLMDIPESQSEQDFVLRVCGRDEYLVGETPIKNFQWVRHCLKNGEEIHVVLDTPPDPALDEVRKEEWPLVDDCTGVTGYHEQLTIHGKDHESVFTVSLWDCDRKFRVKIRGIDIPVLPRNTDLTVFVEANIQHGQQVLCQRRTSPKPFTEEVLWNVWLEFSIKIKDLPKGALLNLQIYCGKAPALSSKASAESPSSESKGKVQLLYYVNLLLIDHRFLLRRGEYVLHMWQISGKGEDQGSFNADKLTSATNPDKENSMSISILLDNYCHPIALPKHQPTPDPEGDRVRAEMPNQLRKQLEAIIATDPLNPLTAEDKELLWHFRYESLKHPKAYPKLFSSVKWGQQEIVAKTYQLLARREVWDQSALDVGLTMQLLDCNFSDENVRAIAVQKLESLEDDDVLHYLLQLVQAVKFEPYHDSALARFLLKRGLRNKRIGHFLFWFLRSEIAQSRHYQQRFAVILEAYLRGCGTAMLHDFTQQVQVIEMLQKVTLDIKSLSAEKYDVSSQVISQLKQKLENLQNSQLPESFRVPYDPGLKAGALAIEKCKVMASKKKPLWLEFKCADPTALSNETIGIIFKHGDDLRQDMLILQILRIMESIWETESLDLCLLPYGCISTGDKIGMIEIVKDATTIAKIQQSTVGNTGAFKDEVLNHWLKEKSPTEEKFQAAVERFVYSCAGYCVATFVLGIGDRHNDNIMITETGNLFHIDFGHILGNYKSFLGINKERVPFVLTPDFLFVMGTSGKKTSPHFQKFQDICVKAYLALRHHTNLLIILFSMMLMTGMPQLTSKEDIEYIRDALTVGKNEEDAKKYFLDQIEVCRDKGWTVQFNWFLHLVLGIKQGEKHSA
Chain of PI3K α (P42336 whole entry): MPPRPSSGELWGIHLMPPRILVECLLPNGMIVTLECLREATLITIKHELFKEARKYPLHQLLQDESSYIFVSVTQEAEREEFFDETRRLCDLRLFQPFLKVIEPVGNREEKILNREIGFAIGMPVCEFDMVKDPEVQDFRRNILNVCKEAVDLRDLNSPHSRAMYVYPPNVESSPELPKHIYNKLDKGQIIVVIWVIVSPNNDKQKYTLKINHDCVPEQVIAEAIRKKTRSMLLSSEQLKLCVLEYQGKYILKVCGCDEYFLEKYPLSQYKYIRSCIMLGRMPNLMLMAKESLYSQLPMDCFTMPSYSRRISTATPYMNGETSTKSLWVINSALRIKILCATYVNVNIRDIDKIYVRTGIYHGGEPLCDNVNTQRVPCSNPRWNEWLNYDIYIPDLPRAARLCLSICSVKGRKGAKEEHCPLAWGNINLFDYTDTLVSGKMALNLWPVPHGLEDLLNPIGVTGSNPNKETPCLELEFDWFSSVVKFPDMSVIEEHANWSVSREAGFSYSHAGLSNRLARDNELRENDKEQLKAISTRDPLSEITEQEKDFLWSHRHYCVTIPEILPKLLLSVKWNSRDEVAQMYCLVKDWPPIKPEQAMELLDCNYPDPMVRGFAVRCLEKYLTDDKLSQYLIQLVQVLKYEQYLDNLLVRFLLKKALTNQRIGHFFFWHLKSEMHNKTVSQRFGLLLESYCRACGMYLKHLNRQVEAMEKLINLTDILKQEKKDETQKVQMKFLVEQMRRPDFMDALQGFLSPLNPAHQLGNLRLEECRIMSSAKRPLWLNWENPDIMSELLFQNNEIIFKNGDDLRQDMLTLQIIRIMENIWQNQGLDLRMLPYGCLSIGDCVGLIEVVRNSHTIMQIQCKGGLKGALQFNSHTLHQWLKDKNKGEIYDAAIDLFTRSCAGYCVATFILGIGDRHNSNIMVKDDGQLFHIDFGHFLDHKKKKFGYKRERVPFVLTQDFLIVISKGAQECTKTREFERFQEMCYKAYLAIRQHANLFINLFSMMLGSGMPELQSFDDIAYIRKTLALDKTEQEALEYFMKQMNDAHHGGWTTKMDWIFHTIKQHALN
Chain of PI3K α (P27986 whole entry partner): as the sequence (P27986 whole entry partner) above

Take `Nc1nc2cc(-c3ccc4nccc(-c5ccncc5)c4c3)ccc2o1` [Compound 1]: the IC50 in data set [1] is under 1000 nM; in data set [2] it was under 1 µM.
As to `Nc1nc2cc(-c3ccc4ncc(N[C@H]5CC[C@H](O)CC5)nc4c3)ccc2o1` [Compound 128], the IC50 in [3] was under 10 µM; in data set [4], under 0.1 µM; in data set [5], under 0.1 µM; in data set [6] it was under 0.1 µM.
As for `Nc1nc2cc(-c3ccc4ncc(N5CCNC(=O)C5)nc4c3)ccc2o1` [Compound 135], the results for the IC50 in data set [3] and in [6] were under 0.1 µM and under 10 µM, respectively.
`CN1CCC(N(C)c2ncnc3ccc(-c4ccc5oc(N)nc5c4)cc23)CC1` [Compound 155] showed an IC50 in data set [5] of under 1 µM.
Take `CC1CN(C(=O)c2cnc3ccc(-c4ccc5oc(N)nc5c4)cn23)CCN1` (centres unmarked) [Compound 164]: the IC50 in data set [2] was under 1 µM.
In turn, `Nc1nc2cc(-c3ccc4ncc(N5CCC(N)CC5)nc4c3)ccc2o1` [Compound 168] came in with an IC50 in data set [5] of under 10 µM.
In the case of `CN1CCC(NC(=O)c2cnc3ccc(-c4ccc5oc(N)nc5c4)cn23)CC1` [Compound 203], the IC50 in [3] is under 0.1 µM; in data set [5] it was under 0.1 µM; in data set [6], under 1 µM.
In turn, `CC(C)[C@H](N)C(=O)N1CCN(c2cnc3ccc(-c4ccc5oc(N)nc5c4)cc3n2)CC1` [Compound 269] showed an IC50 in data set [5] of under 10 µM.
On the same count and under the same terms, with `CC(C)[C@@H](N)C(=O)N1CCN(c2cnc3ccc(-c4ccc5oc(N)nc5c4)cc3n2)CC1` [Compound 270] the figure was under 1 µM; with `CN1CCN(CCNC(=O)c2cnc3ccc(-c4ccc5oc(N)nc5c4)cn23)CC1` [Compound 306], under 1 µM; with `C[C@H]1CN(c2cnc3ccc(-c4ccc5oc(N)nc5c4)cc3n2)CCN1C` [Compound 332], under 1 µM.
Consider `Nc1nc2cc(-c3ccn4ncc(C(=O)N5CCOCC5)c4c3)cc(Cl)c2o1` [Compound 359], for which the IC50 in data set [3] is under 1 µM; in data set [4], under 0.1 µM; in data set [5], under 0.1 µM; in data set [6], under 10 µM.
Regarding `Nc1nc2cc(-c3ccc4ncc(N5CC[C@H](N6CCOCC6)C5)nc4c3)ccc2o1` [Compound 375], the IC50 in data set [5] was under 0.1 µM; in [6], under 10 µM.
Turning to `CN1CCN([C@@H]2CCN(c3cnc4ccc(-c5ccc6oc(N)nc6c5)cc4n3)C2)CC1` [Compound 379], in data set [7], the IC50 was over 10 µM.
As for `O=C(c1cnc2ccc(-c3ccc(Cl)c(NS(=O)(=O)c4ccc(F)cc4F)c3)cn12)N1CCOCC1` [Compound 461], the IC50 in data set [5] was under 1 µM.
As to `Nc1nc2cc(-c3ccc4ncc(C(=O)N5CC(N6CC[C@@H](O)C6)C5)n4c3)ccc2o1` [Compound 470], the IC50 in data set [3] is over 10 µM; in data set [5], under 0.1 µM; in data set [6], over 10 µM.
`Nc1nc2cc(-c3ccc4ncc(C(=O)N5CC[C@H](F)C5)n4c3)ccc2o1` [Compound 476]: the IC50 in data set [5] is under 1 µM; in [6] it was under 10 µM.
Regarding `Nc1nc2cc(-c3ccc4ncc(C(=O)N5CC[C@H](n6cccn6)C5)n4c3)ccc2o1` [Compound 478], the “PI3K δ IC50 (nM)” value in data set [6] is “+++ +++”.
For `O=C(c1cnc2ccc(-c3ccc4c(Nc5ccccc5)noc4c3)cn12)N1CCOCC1` [Compound 509], the IC50 in [8] (PC-3, read-out: PC3 proliferation (nM)*) was under 10000 nM; in data set [3], under 10 µM; in [4] it was under 0.1 µM; in data set [5] it was under 10 µM; in data set [6], under 1 µM.
With `[2H]c1c(-c2ccc3ncc(C(=O)N4CCOCC4)n3c2)c([2H])c2nc(N)oc2c1[2H]` [Compound 531], the IC50 in data set [5] was under 0.1 µM.
For `CN1CCN(c2cnc3ccc(-c4ccc5nc(N)oc5c4)cn23)CC1` [Compound 542], the IC50 in data set [3], in data set [4], in data set [5] and in data set [6] was over 10 µM throughout.
Take `Nc1nc2cc(-c3ccc4ncc(-c5cccnc5)nc4n3)ccc2o1` [Compound 567]: the IC50 was over 10000 nM in data set [8] (MDA-MB-361 cells, Table 4, read-out: MDA-MB-361 proliferation (nM)*); under 0.1 µM in data set [4]; under 0.1 µM in data set [5]; under 10 µM in data set [6].
As to `Nc1nc2cc(-c3ccc4ncc(N5CC(N6CCOCC6)C5)nc4n3)ccc2o1` [Compound 604], the IC50 is under 10 µM in data set [3]; over 10 µM in data set [7] (Table 4, PI3K α inhibitors); under 1 µM in data set [5].
In the case of `CS(=O)(=O)N1CCN(Cc2cc3nc(-c4cccc5[nH]ncc45)nc(N4CCOCC4)c3s2)CC1` [Pan-PI3K inhibitor, GDC0941, reference compound], the “presence (localization/viability) of marginal zone B cells in mouse spleen (FIG. 9 right panel)” value in data set [9] was “reduced presence of MZB cells”. For the same compound, in data set [10], the “B cell function in vivo, antibody production after TNP-Ficoll (FIG. 8)” value is “blocks B cell function in vivo”. Also, in data set [11], the “tumor weight in breast cancer model (FIG. 9 left panel)” value was “reduction in tumor weight”. Further, in data set [12], the “B cell function in vivo (antibody production, percentage of vehicle control)” value is reported as “blocks B cell function”.
